From patent publication US20220117945A1, “ISOXAZOLE CARBOXAMIDE COMPOUNDS AND USES THEREOF” (NOVARTIS AG, priority 2017, published 2022)

What was measured:
[1] = tested on: Atoh1 expression in mouse cerebellar neural precursor cells; test: Atoh1 induction assay in mouse cerebellar neural precursor cells (NPCs), Atoh1-GFP reporter; format: cell-based; conditions: 10 doses 50 μM to 200 nM, 72 hours treatment, DMSO control = 1, more than 5 considered significant, read-out: fold difference (maximum fold difference of GFP average intensity in cell nuclei over the DMSO control)
Outline: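 Neural precursors from postnatal day 3 transgenic Atoh1-GFP mouse cerebellum were expanded and banked, then seeded on matrigel at 2500 cells/well. Cells were treated 72 h with 10-point 1:2 dilutions (50 μM to 200 nM); DMSO served as negative control. Fixed cells were anti-GFP stained and read by high-content imaging.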

[2] = tested on: 6-day-postnatal mouse cochlea explants with hair cell damage; test: Ex vivo hair cell induction assay using 6-day-postnatal mouse cochlea explants with hair cell damage; format: cell-based; conditions: P6 Atoh1-GFP mouse cochlea explants, neomycin-damaged; 3 to 10 μM compound for 8 days, then 4 days blank medium; mean ± SD; DMSO = 0%; more than 20% considered significant
Procedure: Compounds of the present disclosure were assessed for their ability to increase the Atoh1 expression in mouse cerebellar neural precursor cells. The ability of compounds of the present disclosure to induce new hair cell formation was assessed in ex vivo hair cell induction assay using 6-day-postnatal mouse cochlea explants with hair cell damage.
Ex Vivo Hair Cell Induction Assay Using 6-Day-Postnatal Mouse Cochlea Explants with Hair Cell Damage
P6, postnatal 6 days, Atoh1-GFP mice, the same mouse strain used for Atoh1 induction assay described before, were used in this assay. The otic capsule was exposed and the cochleae were micro-dissected. […] and in vitro cultured in serum free medium (culture medium: DMEM/F12+1% N2+2% B27+5 μg/ml ampicillin) at 37° C. under a standard gas atmosphere of humidified air/5% CO2. Inner ear hair cells were damaged by 1 mM Neomycin treatment for 1.25 h. After the neomycin treatment, explants were cultured in blank culture medium for 7 days before the treatment of selected compounds.
For compound administration, the cochlea explants were treated with 3 to 10 μM compound of the present disclosure, with DMSO as the negative control for 8 days with once compound/medium change. After 8 days treatment, the tested compound was removed. The explants were cultured in blank medium for additional 4 days. The cochlea explant cultures then were fixed with 4% w/v formalin and processed for Myo7a immunofluorescence (Myo7a is a specific marker for sensory hair cell) using the rabbit anti-Myo7a antibody (Protus Biosci #25-6790, 1:250 diluted in PBS containing 3% BSA). Rhodamine labeled Goat-anti-rabbit IgG (Molecular Prob. #R6394, 1:1000 diluted in PBS containing 3% BSA) was used as the secondary antibody to visualize the Myo7a positive cells. The images were collected and analyzed using the EVOS image system (Thermo-Fisher Scientific). […] The hair cell identity of the ectopically formed cells was confirmed by staining the cells with multiple hair cell markers.
The efficacy of hair cells induction in this assay is represented by the responsive length percentage of Atoh1 and Myo7a double positive cells in the damaged whole explants after compound treatment. The responsive length percentage was calculated according to the equation of ((the explant length with Atoh1 and Myo7a double positive cells/the full length of cochlea explant)*100%). Note the value of DMSO control is 0% due to total damage of hair cells, and any responsive length percentage more than 20% is considered as significant hair cell induction.

SMILES: CC(=O)N1CCN(CCCCCNC(=O)c2cc(-c3cccs3)on2)CC1 [Example 40]
- maximal fold induction [1]: 21.5
- Responsive length % (explant length with Atoh1 and Myo7a double positive cells / full length of cochlea explant) [2]: 36.9 ± 7.4%

SMILES: NC(=O)C1CN(CCCCCNC(=O)c2cc(-c3cccs3)on2)C1 [Example 27, N-(5-(3-Carbamoylazetidin-1-yl)pentyl)-5-(thiophen-2-yl)isoxazole-3-carboxamide]
- maximal fold induction [1]: 33.7
- Responsive length % (explant length with Atoh1 and Myo7a double positive cells / full length of cochlea explant) [2]: 66.0 ± 2.4%

SMILES: O=C(NCCCCCN1CC(O)C1)c1cc(-c2cccs2)on1 [Example 48]
- maximal fold induction [1]: 37.5
- Responsive length % (explant length with Atoh1 and Myo7a double positive cells / full length of cochlea explant) [2]: 75.8 ± 4.5%

SMILES: NC(=O)C1CN(CCCCCNC(=O)c2cc(-c3ccc(F)cc3)on2)C1 [Example 65, N-(5-(3-carbamoylazetidin-1-yl)pentyl)-5-(4-fluorophenyl)isoxazole-3-carboxamide]
- maximal fold induction [1]: 29.8
- Responsive length % (explant length with Atoh1 and Myo7a double positive cells / full length of cochlea explant) [2]: 43.1 ± 7.6%

SMILES: O=C(NCCCCCN1CC[C@H](O)C1)c1cc(-c2cccs2)on1 [Example 36]
- maximal fold induction [1]: 15.7
- Responsive length % (explant length with Atoh1 and Myo7a double positive cells / full length of cochlea explant) [2]: 28.1 ± 6.3%

SMILES: CN1CCN(CCCCCNC(=O)c2cc(-c3cccs3)on2)CC1 [Example 8, N-(5-(4-Methylpiperazin-1-yl)pentyl)-5-(thiophen-2-yl)isoxazole-3-carboxamide]
- maximal fold induction [1]: 30.9
- Responsive length % (explant length with Atoh1 and Myo7a double positive cells / full length of cochlea explant) [2]: 54.0 ± 6.3%

SMILES: CN1CC2CCC1CN2CCCCCNC(=O)c1cc(-c2cccs2)on1 (stereo not drawn) [Example 52, N-(5-(5-methyl-2,5-diazabicyclo[2.2.2]octan-2-yl)pentyl)-5-(thiophen-2-yl)isoxazole-3-carboxamide]
- maximal fold induction [1]: 26.7
- Responsive length % (explant length with Atoh1 and Myo7a double positive cells / full length of cochlea explant) [2]: 28.2 ± 11.9%

SMILES: O=C(NCCCCCN1CCC(F)CC1)c1cc(-c2cccs2)on1 [Example 53]
- maximal fold induction [1]: 22.9
- Responsive length % (explant length with Atoh1 and Myo7a double positive cells / full length of cochlea explant) [2]: 34.7 ± 9.8%

SMILES: CN1C2CCC1CN(CCCCCNC(=O)c1cc(-c3cccs3)on1)C2 [Example 12, N-(5-(8-Methyl-3,8-diazabicyclo[3.2.1]octan-3-yl)pentyl)-5-(thiophen-2-yl)isoxazole-3-carboxamide]
- maximal fold induction [1]: 21.1
- Responsive length % (explant length with Atoh1 and Myo7a double positive cells / full length of cochlea explant) [2]: 39.7 ± 8.2%
